Target: T1, AXL (Homo sapiens, UniProt P30530)
T1 sequence (P30530 26-894): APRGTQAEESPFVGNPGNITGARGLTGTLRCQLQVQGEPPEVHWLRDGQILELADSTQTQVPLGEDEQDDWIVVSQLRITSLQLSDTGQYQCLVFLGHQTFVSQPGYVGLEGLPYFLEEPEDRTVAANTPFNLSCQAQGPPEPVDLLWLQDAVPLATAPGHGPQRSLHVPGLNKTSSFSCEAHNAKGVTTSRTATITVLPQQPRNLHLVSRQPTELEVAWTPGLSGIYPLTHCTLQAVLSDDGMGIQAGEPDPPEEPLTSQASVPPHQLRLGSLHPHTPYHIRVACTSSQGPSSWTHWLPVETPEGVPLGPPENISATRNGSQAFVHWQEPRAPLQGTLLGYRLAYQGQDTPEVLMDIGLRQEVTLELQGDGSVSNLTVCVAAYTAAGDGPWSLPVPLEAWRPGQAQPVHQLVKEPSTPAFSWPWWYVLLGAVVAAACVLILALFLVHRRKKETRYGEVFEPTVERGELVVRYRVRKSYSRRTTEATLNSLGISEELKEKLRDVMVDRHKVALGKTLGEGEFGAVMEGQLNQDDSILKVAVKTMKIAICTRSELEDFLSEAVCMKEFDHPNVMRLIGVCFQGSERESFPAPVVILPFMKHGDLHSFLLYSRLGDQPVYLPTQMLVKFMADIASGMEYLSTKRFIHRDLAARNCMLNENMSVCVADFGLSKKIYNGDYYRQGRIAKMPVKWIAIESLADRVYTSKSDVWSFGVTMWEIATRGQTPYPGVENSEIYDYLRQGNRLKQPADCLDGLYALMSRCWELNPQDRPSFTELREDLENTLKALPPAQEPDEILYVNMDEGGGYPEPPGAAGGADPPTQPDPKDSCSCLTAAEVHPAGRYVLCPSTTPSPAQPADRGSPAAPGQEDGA
Assay: Inhibition of AXL phosphorylation in NCI-H1299 NSCL xenografts (PK/PD)
Assay type: in vivo, mice
Design: endogenous in cells; host or cells: NCI-H1299 human NSCLC cells (culture; subcutaneous xenograft in mice)
Excerpt: Female Nu/Nu mice (6-8 weeks, Charles River Laboratory, Wilmington, Mass.) were maintained 5/cage in microisolator units on a standard laboratory diet (Teklad Labchow, Harlan Teklad, Madison, Wis.). Animals were housed under humidity- and temperature-controlled conditions and the light/dark cycle was set at 12-hour intervals. Mice were quarantined at least 1 week prior to experimental manipulation. Experiments were approved (Protocol 03-023) by the Institutional Animal Care and Use Committee of Teva Pharmaceuticals Inc
Briefly, NCI-H1299 NSCL cells (for AXL studies) or GTL-16 gastric carcinoma cells (for c-Met studies) were collected and resuspended in DMEM medium at density of 5×10^7/mL and an aliquot (100 μL) of the cell suspension (5×10^6 cells) was inoculated subcutaneously to the left flank of each mouse with a 23 g needle. […] At indicated time points post dosing, the mice (3 mice at each time point) were sacrificed by decapitation and blood was collected in 1.5 mL microcentrifuge tubes containing 20 μL of heparin sodium (10,000 unit/mL in H2O, Cat^#0210193191, MP Biomedical, Solon, Ohio) and left on ice briefly. The tubes were centrifuged at 20,817×g (Eppendorf Centrifuge 5417R with a FA45-30-11 rotor) for 8 minutes at 4° C. and the plasma was collected and transferred to 1.5 mL microfuge tubes, which were then stored at −80° C. The tumors were excised and weighed, cut into small pieces with a scalpel and placed into a round-bottom 14 mL tube (Cat^#352059, Becton Dickinson, Franklin, N.J.) on ice. Two volumes of FRAK lysis buffer without detergent [10 mM Tris, pH 7.5, 50 mM sodium chloride, 20 mM sodium fluoride, 2 mM sodium pyrophosphate, 0.1% BSA, plus freshly prepared 1 mM activated sodium vanadate, 4 mM DTT, 1 mM PMSF and the protease inhibitor cocktail III (1:100 dilution, Cat^#539134, Calbiochem, La Jolla, Calif.)] were added to 1 volume of tumor (eg, 500 μL FRAK lysis buffer were added to 250 mg tissue). […] The compound levels in both plasma and tumor lysates were measured by LC-MS/MS. […]

COc1cc2nccc(Oc3ccc(NC(=O)c4cn(C(C)C)c(=O)n(-c5ccc(F)cc5)c4=O)cc3F)c2cc1OC [CEP-40783, 3-(4-Fluorophenyl)-1-isopropyl-2,4-dioxo-1,2,3,4-tetrahydropyrimidine-5-carboxylic acid [4-(6,7-dimethoxyquinolin-4-yloxy)-3-fluorophenyl]-amide]
inhibition of AXL phosphorylation (target inhibition) (0.3 mg/kg, 6 h post dose): ~80%
inhibition of AXL phosphorylation (target inhibition) (1 mg/kg, between 6-24 h): > 90%
inhibition of AXL phosphorylation (10 mg/kg po, up to 48 h post dosing): complete AXL inhibition
